Assay: Sensory evaluation of saltiness enhancing effect in aqueous salt solution (Experiments 2 and 3); also: key: A test sample for which the majority of the expert panelists evaluated as having a stronger saltiness than the control sample was determined as having a saltiness enhancing effect (Good); a sample for which they did not so was determined as having no saltiness enhancing effect (Bad); *2: Undetermined whether saltiness was enhanced or not due to strong bitterness
Assay type: in vivo, human
Procedure: The preparation of 3″-α-GN prepared in Experiment 1, Sunphenon EGCg-OP (from Taiyo Kagaku Co., Ltd., epigallocatechin gallate (EGCg), 95.3% pure), naringin (from Sichuan Xinhua Health Biotechnology Co., Ltd., 98.2% pure) or Hayashibara Hesperidin S (from Hayashibara Co., Ltd., monoglucosyl hesperidin, 82.1% pure), and salt (from The Salt Industry Center of Japan, the purity of sodium chloride was 99% or higher) were dissolved in pure water to give concentrations as shown in Table 1 below for preparing aqueous solutions of a control sample and test samples 1-1 to 1-5. Then, 9 panelists competent in food sensory evaluation who had passed the five-taste test (hereinafter referred to as “expert panelists”) conducted sensory evaluation tests on the test samples. Specifically, each of the expert panelists held a room-temperature control sample and a room-temperature test sample in her/his mouth and evaluated whether the saltiness of the test sample was weaker, similar, or stronger than that of the control sample, and recorded the overall taste.
Control samples 2 and 3 and test samples 9 and 10 were prepared as in Experiment 2, except that the concentrations of 3″-α-GN and salt were changed as shown in Table 2 below. Sensory evaluation tests were then conducted as in Experiment 2 to evaluate the intensity of saltiness of the test samples including 3″-α-GN as compared with the control samples of the same salt concentrations.

[1] = 5 ppm in water, salt 0.5 mass % (test samples 3, 6, 7)

## CC1O[C@@H](OC2C(O[C@H]3OC(CO)[C@@H](O)C(O)C3O)[C@H](O)C(CO)O[C@H]2Oc2cc(O)c3c(c2)OC(c2ccc(O)cc2)CC3=O)C(O)C(O)[C@H]1O (stereo partly drawn) [3″-α-GN, 3″-α-monoglucosyl naringin]
0.1 ppm in water, salt 0.5 mass %, G/S 0.02×10^−3 (test sample 1 vs control sample 1)
  Saltiness enhancing effect: Good
1 ppm in water, salt 0.5 mass %, G/S 0.2×10^−3 (test sample 2)
  Saltiness enhancing effect: Good
1 ppm in water, salt 1 mass %, G/S 0.1×10^−3 (test sample 9 vs control sample 2)
  Saltiness enhancing effect: Good
1 ppm in water, salt 2 mass %, G/S 0.05×10^−3 (test sample 10 vs control sample 3)
  Saltiness enhancing effect: Good
[1]
  Saltiness enhancing effect: Good
10 ppm in water, salt 0.5 mass %, G/S 2.0×10^−3 (test sample 4)
  Saltiness enhancing effect: Good
40 ppm in water, salt 0.5 mass %, G/S 8.0×10^−3 (test sample 5)
  Saltiness enhancing effect: *2

## O=C(O[C@@H]1Cc2c(O)cc(O)cc2O[C@@H]1c1cc(O)c(O)c(O)c1)c1cc(O)c(O)c(O)c1 [EGCg, epigallocatechin gallate, reference compound]
[1]
  Saltiness enhancing effect: Bad

## C[C@@H]1O[C@@H](O[C@H]2[C@H](Oc3cc(O)c4c(c3)O[C@H](c3ccc(O)cc3)CC4=O)O[C@H](CO)[C@@H](O)[C@@H]2O)[C@H](O)[C@H](O)[C@H]1O [Naringin, naringin, reference compound]
[1]
  Saltiness enhancing effect: Bad

## monoglucosyl hesperidin [reference compound]
4 ppm in water, salt 0.5 mass % (test sample 8)
  Saltiness enhancing effect: Bad

Source: patent US20250000128A1, “SALTINESS ENHANCING COMPOSITION, AND COMPOSITION FOR ORAL USE AND METHOD OF ENHANCING SALTINESS THEREOF” (Nagase Viita Co., Ltd., priority 2021, published 2025)
